Measurements: US11976098B2, “Cooked millet prolamin peptide for inhibiting alpha-amylase and alpha-glucosidase” (China Agricultural University, priority 2022, dated 2024)

tested on: α-glucosidase; assay: In vitro α-glucosidase inhibitory activity (PNPG, 405 nm); assay type: biochemical; details: sample 0.5%, 37° C., pH 6.8
Experimental: The method for determining α-glucosidase activity is as follows: First, the solution of substrate 4-Nitrophenyl […] (PNPG) with a concentration of 1.505 mg/mL (5 mmol/L of PNPG dissolved in 0.1 mol/L phosphate buffer with a pH of 6.8) was prepared, a Na2CO3 solution with a concentration of 0.2 mol/L was prepared, and α-glucosidase solution (0.8 U/ml of α-glucosidase dissolved in 0.1 mol/L phosphate buffer with a pH of 6.8) was prepared. After the solutions were prepared, the following two groups were set for determination: [table] After preparing according to the above table, the resulting solution was shaken in a water bath at 37° C. for 10 min, followed by adding 100 μL of enzyme solution and continuing to shake in the water bath at 37° C. for 10 min. Finally, 50 μL of Na2CO3 solution was added, and the absorbance was measured at 405 nm. The formula for calculating the α-glucosidase inhibition rate is as follows: [formula]

Substance	α-glucosidase inhibition rate [%]
AGAGPQGRP (The sequence is synthetized) [SEQ ID NO: 2, small peptide screened from cooked millet prolamin]	31.57
KTGSGAEGMHGGK (The sequence is synthetized) [SEQ ID NO: 5, small peptide screened from cooked millet prolamin]	15.64
QQQQLLR (The sequence is synthetized) [SEQ ID NO: 4, small peptide screened from cooked millet prolamin]	15.94

The remaining lines, values ahead:

α-glucosidase inhibition rate [%]	Substance
17.67	FALQGAAFLGSA (The sequence is synthetized) [SEQ ID NO: 3, small peptide screened from cooked millet prolamin]
13.77	KAHAALGAK (The sequence is synthetized) [SEQ ID NO: 6, small peptide screened from cooked millet prolamin]
32.67	QQLRPF (The sequence is synthetized) [SEQ ID NO: 1, small peptide screened from cooked millet prolamin]
